# Measured values reported in PMC5272797 (Biochemical pharmacology, 2016).
# What was measured:
# Assay type in all cases: biochemical
# EGFR T790M = EGFR T790M (Homo sapiens, UniProt P00533, T790M); assay: Z'-LYTE Tyr4 peptide kinase assay, single dose […]; settings: read-out: Mean inhibition at 10 μM (%)
# EGFR (ErbB1) = EGFR (ErbB1) (Homo sapiens, UniProt P00533); assay: Z'-LYTE Tyr4 peptide kinase assay, 10-point dose-response
# EGFR L858R = EGFR L858R (Homo sapiens, UniProt P00533, L858R); assay: Z'-LYTE Tyr4 peptide kinase assay, single dose […]; settings: read-out: Mean inhibition at 10 μM (%)
# Sequence of EGFR L858R (P00533 668-1210 L858R limits assumed): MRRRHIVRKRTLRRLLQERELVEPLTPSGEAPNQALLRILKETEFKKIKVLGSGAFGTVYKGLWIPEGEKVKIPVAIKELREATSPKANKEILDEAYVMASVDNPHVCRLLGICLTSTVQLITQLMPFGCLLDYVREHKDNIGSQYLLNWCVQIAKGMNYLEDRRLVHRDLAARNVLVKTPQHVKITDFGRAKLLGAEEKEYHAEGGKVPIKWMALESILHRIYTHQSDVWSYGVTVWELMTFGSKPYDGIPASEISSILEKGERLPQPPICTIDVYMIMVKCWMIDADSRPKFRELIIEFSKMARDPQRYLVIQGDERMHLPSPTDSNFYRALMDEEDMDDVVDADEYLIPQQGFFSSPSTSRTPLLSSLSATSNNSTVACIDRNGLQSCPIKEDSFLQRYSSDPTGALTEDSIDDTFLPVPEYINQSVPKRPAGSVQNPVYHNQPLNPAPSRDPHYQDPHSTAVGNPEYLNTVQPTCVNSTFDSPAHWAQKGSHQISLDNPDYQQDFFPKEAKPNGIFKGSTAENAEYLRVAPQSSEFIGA
# EGFR L861Q = EGFR L861Q (Homo sapiens, UniProt P00533, L861Q); assay: Z'-LYTE Tyr4 peptide kinase assay, single dose […]; settings: read-out: Mean inhibition at 10 μM (%)
# Sequence of EGFR L861Q (P00533 668-1210 L861Q limits assumed): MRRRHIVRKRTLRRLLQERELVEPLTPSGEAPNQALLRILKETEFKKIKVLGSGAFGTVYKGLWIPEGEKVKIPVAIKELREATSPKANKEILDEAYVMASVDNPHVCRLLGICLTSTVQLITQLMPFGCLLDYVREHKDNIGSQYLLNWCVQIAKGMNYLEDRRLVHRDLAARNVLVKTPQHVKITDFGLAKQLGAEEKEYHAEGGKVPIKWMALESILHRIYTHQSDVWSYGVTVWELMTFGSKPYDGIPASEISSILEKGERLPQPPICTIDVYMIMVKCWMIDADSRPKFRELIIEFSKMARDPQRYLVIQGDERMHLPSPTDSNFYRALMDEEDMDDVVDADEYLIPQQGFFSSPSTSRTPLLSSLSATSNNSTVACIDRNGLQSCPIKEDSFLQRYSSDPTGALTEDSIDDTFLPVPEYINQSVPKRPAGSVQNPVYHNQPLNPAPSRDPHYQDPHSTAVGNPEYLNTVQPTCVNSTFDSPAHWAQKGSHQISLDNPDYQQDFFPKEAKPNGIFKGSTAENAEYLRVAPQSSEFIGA
# Sequence of EGFR (ErbB1) (P00533 668-1210): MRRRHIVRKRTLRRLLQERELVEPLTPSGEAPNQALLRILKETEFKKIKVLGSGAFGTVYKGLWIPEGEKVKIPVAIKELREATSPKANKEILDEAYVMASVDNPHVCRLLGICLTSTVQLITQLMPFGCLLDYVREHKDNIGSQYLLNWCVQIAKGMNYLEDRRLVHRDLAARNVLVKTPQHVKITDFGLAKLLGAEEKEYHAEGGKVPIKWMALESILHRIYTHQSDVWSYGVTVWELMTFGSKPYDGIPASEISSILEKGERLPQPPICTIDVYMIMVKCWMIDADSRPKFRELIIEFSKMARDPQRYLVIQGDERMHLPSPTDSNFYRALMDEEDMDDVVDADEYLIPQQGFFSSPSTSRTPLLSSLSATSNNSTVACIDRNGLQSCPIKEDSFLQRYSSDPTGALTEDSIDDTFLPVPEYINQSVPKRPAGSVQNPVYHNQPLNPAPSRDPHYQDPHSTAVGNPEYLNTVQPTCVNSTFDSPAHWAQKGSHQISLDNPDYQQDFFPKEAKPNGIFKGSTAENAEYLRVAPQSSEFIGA
# Sequence of EGFR T790M (P00533 668-1210 T790M limits assumed): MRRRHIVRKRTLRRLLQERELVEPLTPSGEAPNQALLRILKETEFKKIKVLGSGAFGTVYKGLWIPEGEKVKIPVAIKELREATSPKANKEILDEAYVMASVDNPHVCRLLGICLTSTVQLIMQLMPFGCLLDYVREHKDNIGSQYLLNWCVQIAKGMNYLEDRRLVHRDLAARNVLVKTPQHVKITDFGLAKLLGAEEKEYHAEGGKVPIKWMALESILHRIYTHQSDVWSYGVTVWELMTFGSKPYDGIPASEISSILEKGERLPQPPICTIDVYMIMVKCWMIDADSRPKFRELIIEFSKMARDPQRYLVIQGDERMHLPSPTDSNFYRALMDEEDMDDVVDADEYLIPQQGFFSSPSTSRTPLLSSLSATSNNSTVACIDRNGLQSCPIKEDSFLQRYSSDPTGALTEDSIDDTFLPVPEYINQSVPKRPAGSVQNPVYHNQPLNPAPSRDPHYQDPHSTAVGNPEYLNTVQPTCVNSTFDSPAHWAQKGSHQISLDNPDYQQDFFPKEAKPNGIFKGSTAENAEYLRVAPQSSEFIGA
structure (smiles),measurement,setting,value
"CCCC(=O)O[C@]1(C)CC[C@H](C(C)C)[C@@H]2[C@H]1[C@H]1C[C@](C)(O)[C@@H](O)CC[C@@](C)(OC(C)=O)[C@@H]2O1 [compound 1, Pachycladin A]",inhibition at 10 µM,EGFR T790M,93%
same,IC50,EGFR (ErbB1),570 nM
same,inhibition at 10 µM,EGFR L858R,98%
same,inhibition at 10 µM,EGFR L861Q,93%
